From patent US5789448A, “Benzoylethylene derivative” (Mitsubishi Chemical Corporation, priority 1994, dated 1998)
Like-named read-outs stand apart in the source and are kept apart here.

What was measured:
[1] = target: T1, human EGF (epithelial cell growth factor) receptor tyrosine kinase (Homo sapiens, UniProt P00533); experiment: Tyrosine kinase inhibiting activity (EGF receptor partially purified from A431 cell membrane fraction, RR-SRC peptide substrate, gamma-32P-ATP); type: biochemical; conditions: 10 μM ATP, 1% DMSO, in ice for 30 minutes
T1 construct: to obtain an A431 cell membrane fraction, and this fraction was provided for measurement as a partially purified EGF receptor; endogenous in cells; host or cells: A431 (human squamous cell carcinoma), membrane fraction
Protocol: (§1) In order to evaluate the tyrosine kinase inhibiting activity and the cancer cell growth inhibiting activity of the compound of the present invention, tests were carried out in a partially purified human EGF ([…]) receptor tyrosine kinase activity measuring system and a cell culture system using human cancerous cells.
(Tyrosine kinase inhibiting activity)
The tyrosine kinase inhibiting activity was measured by using an EGF receptor which was partially purified from an A431 cell line derived from human squamous cell carcinoma and by improving the tyrosine kinase activity measurement method described in Linda J. Pike et al., Proceedings of the National Academy of Sciences of the U.S.A. 79, 1443 (1982).
The detailed method is as described below.
A431 cells were cultured in a Dulbecco modified Eagle's medium (DMEM) containing 10% fetal calf serum (FCS), at 37° C. under 5% carbonic acid gas. The cells were homogenized in a solution containing 10 mM N-2-hydroxyethylpiperazino-N'-2-ethanesulfonic acid (Hepes) buffer (pH 7.4), 0.25M saccharose and 0.1 mM EDTA and then centrifuged at 3000 g for 5 minutes. Further, a supernatant thereof was centrifuged at 10000× g for 30 minutes to obtain an A431 cell membrane fraction, and this fraction was provided for measurement as a partially purified EGF receptor which was an enzyme source.
To a reaction mixture of the above-mentioned A431 cell membrane fraction (10 to 15 μg), a 30 mM Hepes buffer (pH 7.7), 2 mM MnCl2, 50 μM Na3 VO4 and a sample dissolved in dimethylsulfoxide (DMSO) (final concentration: 1% DMSO) was added 100 ng of EGF, and then 75 μg of a synthetic substrate RR-SRC peptide (a peptide described in Sequence No. 1) and 10 μM gamma-^32 P-adenosine triphosphoric acid (37 to 42 KBq) were added thereto to start a reaction.
The volume at that time was 60 μl.
The reaction was carried out in ice for 30 minutes, and the reaction was terminated by adding 6 μl of 10 mg/ml bovine serum albumin and 25 μl of 20% trichloroacetic acid. The reaction mixture was left to stand in ice for 30 minutes.
Next, after the mixture was centrifuged at 5000× g for 2 minutes, 40 μl of the supernatant was sampled and adsorbed to P81 phosphocellulose paper.
This was dipped in a 30% acetic acid solution for 15 minutes to fix, washed by dipping in a 15% acetic acid solution for 15 minutes (washing was repeated four times) and measured the count of ^32 P attached to P81 phosphocellulose paper by a liquid scintillation counter, and this value was defined as A.
At the same time, the counts of a reaction in which the sample tested was not added and a reaction in which both the sample and EGF were not added were measured and were defined as B and C, respectively.
The tyrosine kinase inhibiting rate is determined by the following formula.
Inhibiting rate (%)=100-{(B-A)/(B-C)}×100
From the inhibiting rate obtained by changing the addition concentration of the sample, an IC50 value (50% inhibiting concentration) was calculated.

[2] = test system: KB cells of human rhinopharyngeal cancer; experiment: Cancer cell growth inhibiting activity (KB cells, MTT); type: cell-based; conditions: read-out: Cancer cell growth inhibiting activity (IC50)
Protocol: as §1
(Cancer cell growth inhibiting activity)
KB cells of human rhinopharyngeal cancer retain EGF receptor on cellular surfaces thereof excessively.
By using these KB cells, investigation of the effect of a sample on growth of cultured cancer cells was carried out by the following method.
2.5×10^3 cells/well of KB cells were sowed on a 96 well dish and cultured in a DMEM:F12 (1:1) medium containing 10% FCS, 50 U/ml penicillin and 50 μg/ml of streptomycin, under conditions of 37° C. and 5% carbonic acid gas for 1 day. Thereafter, a sample dissolved in DMSO was added to the medium (DMSO final concentration: <0.1%) and cultured under the above conditions for 3 days. The sample and the medium were replaced every 24 hours.
The count of the number of living cells was determined by calorimetric quantitation at two wavelengths of 540 nm and 660 nm using a MTT reagent by referring to the measurement method described in Michael C.
At the same time, the count of the number of living cells when the sample was not added was also measured, and the value was defined as b.
The cell growth inhibiting rate was determined by the following formula.
Inhibiting rate (%)=(b-a)/b×100

[3] = KB cells, 3 days, sample and medium replaced every 24 hours, MTT

T1 sequence (P00533 25-1210): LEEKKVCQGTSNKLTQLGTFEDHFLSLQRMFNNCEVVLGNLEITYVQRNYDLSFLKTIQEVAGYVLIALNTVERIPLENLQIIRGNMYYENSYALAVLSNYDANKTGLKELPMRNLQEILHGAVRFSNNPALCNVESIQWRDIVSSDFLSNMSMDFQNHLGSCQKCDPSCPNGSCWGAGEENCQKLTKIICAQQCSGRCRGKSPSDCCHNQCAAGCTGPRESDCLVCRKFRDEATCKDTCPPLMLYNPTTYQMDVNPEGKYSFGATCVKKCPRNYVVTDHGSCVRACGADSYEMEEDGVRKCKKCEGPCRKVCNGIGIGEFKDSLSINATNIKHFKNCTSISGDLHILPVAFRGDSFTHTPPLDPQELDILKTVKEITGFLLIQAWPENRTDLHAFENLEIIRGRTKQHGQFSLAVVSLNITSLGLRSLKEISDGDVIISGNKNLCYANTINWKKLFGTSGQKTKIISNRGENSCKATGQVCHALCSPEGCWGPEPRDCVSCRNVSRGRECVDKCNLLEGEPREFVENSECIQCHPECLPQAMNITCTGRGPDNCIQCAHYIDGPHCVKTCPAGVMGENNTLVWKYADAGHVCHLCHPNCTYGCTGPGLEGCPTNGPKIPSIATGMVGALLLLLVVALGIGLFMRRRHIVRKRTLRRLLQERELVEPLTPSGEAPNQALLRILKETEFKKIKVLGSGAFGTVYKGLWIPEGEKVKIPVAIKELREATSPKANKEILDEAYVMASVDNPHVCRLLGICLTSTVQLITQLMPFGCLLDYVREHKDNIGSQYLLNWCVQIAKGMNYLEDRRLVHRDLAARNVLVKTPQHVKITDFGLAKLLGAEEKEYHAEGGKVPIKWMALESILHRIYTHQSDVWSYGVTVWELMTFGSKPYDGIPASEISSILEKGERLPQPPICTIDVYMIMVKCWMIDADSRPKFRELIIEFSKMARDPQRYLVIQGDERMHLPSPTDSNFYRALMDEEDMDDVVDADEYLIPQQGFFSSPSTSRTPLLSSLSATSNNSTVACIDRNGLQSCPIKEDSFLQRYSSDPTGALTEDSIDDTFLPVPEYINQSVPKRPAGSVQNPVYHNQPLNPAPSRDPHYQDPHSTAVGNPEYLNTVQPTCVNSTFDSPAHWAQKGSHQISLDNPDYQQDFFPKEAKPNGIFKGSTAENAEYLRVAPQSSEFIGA

## COc1ccc(C(=O)C=CC#N)cc1OC [compound 5]
[1]
  IC50: 0.34 µM
[2]; KB
  IC50: 620 nM

## CCN(CC)C(C)(C)C(C#N)=CC(=O)c1ccc(OC)c(OC)c1 [compound 349]
[1]
  IC50: 5.8 µM
[2]; [3]
  IC50: 2000 nM

## COc1ccc(C(=O)C=C(CN(C(C)C)C(C)C)S(=O)(=O)c2ccccc2)cc1OC [compound 335]
[1]
  IC50: 27.9 µM
[2]; KB
  IC50: 3100 nM

## COC(=O)C=CC(=O)c1ccc(OC)c(OC)c1 [compound 26]
[1]
  IC50: 0.86 µM
[2]; KB
  IC50: 1900 nM

## COc1ccc(C(=O)C=CCN2CCCCC2)cc1OC [compound 97]
[1]
  IC50: 8.2 µM
[2]; KB
  IC50: 2600 nM

## COc1ccc(C(=O)C=C(C(C)(C)N2CCC(C)CC2)S(=O)(=O)c2ccccc2)cc1OC [compound 327]
[1]
  IC50: 27.3 µM
[2]; [3]
  IC50: 5000 nM

## CCN(CC)C(C)(C)C(=CC(=O)c1ccc(OC)c(OC)c1)S(=O)(=O)c1cccs1 [compound 352]
[1]
  IC50: 0.47 µM
[2]; KB
  IC50: 630 nM

## CCN(CC)C(C)(C)C(=CC(=O)c1ccc(OC)c(OC)c1)S(=O)(=O)c1ccc(C)cc1 [compound 293]
[1]
  IC50: 1.1 µM
[2]; KB
  IC50: 230 nM

## COc1cc(C(=O)C=C(C(C)(C)N2CCCCC2)S(=O)(=O)c2ccccc2)cc2c1OCO2 [compound 290]
[1]
  IC50: 5 µM
[2]; KB
  IC50: 830 nM

## CCN(CC)C(C)(C)C(=CC(=O)c1ccc(OC)c(OC)c1)S(=O)(=O)c1ccc([N+](=O)[O-])cc1 [compound 350]
[1]
  IC50: 1.4 µM
[2]; KB
  IC50: 570 nM

## CCN(CC)C(C)(C)C(=CC(=O)c1ccc(OC)c(OC)c1)S(=O)(=O)c1ccccc1 [compound 278]
[1]
  IC50: 1.7 µM
[2]; KB
  IC50: 950 nM

## COC(=O)C=CC(=O)c1ccc(OC)cc1 [compound 29]
[1]
  IC50: 9.4 µM
[2]; KB
  IC50: 3900 nM

## CC(C(=O)Nc1ccccc1)=C(C)C(=O)c1ccccc1 [compound 253]
[1]
  IC50: 38 µM
[2]; KB
  IC50: 420 nM
